Experiments:
[1] = Apparent permeability from apical to basolateral side in MDCK cells at 10 uM by LC/MS/MS analysis; assay type: ADME, cell-based, Canis lupus familiaris; conditions: dog
[2] = Octanol-aqueous phosphate buffer distribution coefficient, log D of the compound at pH 7.4 after 1 hr by LC/MS/MS analysis; assay type: physicochemical
[3] = Apparent permeability from basolateral to apical side in MDCK cells at 10 uM by LC/MS/MS analysis; assay type: ADME, cell-based, Canis lupus familiaris; conditions: dog
[4] = biological target: Cytochrome P450 2C9 (Homo sapiens, UniProt P11712)
Chain of Cytochrome P450 2C9 (P11712 whole entry): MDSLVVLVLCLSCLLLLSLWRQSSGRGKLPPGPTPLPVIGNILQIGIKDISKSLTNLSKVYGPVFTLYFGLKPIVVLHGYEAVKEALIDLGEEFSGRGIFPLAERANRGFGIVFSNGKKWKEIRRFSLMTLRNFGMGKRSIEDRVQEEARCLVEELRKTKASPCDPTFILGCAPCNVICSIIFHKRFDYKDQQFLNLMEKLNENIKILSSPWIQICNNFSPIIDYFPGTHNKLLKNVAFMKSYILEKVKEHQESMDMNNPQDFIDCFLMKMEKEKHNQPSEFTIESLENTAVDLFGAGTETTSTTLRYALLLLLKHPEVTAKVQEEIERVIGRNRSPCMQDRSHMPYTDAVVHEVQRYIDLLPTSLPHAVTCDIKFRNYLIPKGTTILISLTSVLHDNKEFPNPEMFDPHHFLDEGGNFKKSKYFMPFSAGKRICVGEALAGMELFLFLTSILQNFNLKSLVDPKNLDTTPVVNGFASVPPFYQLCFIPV

[5] = biological target: T1, Cytochrome P450 3A4 (Homo sapiens, UniProt P08684); test: Time dependent inhibition of CYP3A4 in human liver microsomes assessed as substrate AUC shift using midazolam as substrate; assay type: ADME; parameters: scale not given: the % may be the effect or the level left
T1 sequence (P08684 whole entry): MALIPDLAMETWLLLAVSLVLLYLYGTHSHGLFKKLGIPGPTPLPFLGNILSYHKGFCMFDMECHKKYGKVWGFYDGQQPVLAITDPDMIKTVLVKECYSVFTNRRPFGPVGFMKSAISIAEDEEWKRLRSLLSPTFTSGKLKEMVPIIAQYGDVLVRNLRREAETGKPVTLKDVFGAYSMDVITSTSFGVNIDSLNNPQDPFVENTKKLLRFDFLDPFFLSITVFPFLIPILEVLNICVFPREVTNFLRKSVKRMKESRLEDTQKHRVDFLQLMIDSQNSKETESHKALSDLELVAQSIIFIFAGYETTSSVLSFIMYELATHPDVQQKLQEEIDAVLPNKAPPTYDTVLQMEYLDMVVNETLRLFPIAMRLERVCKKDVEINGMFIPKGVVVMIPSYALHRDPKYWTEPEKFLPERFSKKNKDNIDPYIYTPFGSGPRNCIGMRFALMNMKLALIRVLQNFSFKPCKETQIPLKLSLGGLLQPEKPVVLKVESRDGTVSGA

[6] = biological target: T1, Cytochrome P450 3A4; test: Time dependent inhibition of CYP3A4 in human liver microsomes assessed as substrate AUC shift using testosterone as substrate; assay type: ADME; parameters: scale not given: the % may be the effect or the level left
[7] = biological target: Cytochrome P450 2C19 (Homo sapiens, UniProt P33261)
Chain of Cytochrome P450 2C19 (P33261 whole entry): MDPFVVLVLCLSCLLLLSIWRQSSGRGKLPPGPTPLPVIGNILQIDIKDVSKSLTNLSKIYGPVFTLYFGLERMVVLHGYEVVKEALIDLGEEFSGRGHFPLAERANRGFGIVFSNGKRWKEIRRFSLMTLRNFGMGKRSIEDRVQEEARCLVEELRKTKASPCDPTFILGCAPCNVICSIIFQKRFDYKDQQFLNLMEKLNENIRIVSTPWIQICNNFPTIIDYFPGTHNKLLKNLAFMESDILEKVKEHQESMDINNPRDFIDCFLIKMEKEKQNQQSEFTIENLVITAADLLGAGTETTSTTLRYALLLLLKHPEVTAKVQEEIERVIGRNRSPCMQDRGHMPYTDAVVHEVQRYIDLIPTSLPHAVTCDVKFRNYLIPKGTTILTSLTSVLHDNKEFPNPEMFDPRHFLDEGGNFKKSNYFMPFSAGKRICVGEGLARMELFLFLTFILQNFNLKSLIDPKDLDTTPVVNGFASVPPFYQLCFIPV

[8] = biological target: T2, Cytochrome P450 1A2 (Homo sapiens, UniProt P05177)
T2 sequence (P05177 whole entry): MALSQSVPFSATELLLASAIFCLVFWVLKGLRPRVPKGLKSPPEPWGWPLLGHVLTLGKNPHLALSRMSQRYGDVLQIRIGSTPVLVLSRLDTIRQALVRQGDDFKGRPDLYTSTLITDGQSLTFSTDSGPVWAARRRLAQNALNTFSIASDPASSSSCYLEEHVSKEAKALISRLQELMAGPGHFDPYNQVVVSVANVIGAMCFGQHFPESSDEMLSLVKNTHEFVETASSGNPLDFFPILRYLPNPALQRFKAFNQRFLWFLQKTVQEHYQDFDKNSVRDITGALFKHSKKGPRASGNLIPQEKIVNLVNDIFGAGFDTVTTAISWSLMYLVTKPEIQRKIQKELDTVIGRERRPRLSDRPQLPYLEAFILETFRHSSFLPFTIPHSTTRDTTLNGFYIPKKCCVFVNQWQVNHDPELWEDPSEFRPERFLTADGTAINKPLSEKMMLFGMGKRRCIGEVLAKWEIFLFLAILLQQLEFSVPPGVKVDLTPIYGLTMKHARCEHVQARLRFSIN

[9] = biological target: Cytochrome P450 2D6 (Homo sapiens, UniProt P10635)
Chain of Cytochrome P450 2D6 (P10635 whole entry): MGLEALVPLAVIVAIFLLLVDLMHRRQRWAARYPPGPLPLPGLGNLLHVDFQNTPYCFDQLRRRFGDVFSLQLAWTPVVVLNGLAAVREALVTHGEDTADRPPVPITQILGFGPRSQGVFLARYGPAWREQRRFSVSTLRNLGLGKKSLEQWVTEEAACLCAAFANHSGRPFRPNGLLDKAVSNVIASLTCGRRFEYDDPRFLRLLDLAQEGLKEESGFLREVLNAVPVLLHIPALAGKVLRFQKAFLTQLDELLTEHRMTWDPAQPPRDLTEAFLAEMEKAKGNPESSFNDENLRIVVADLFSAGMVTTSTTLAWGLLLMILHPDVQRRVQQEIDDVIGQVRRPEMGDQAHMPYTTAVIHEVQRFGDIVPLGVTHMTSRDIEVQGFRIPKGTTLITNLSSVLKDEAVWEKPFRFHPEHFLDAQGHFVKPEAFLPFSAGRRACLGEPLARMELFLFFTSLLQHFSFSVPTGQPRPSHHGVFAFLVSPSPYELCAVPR

| Structure (SMILES) | Papp A→B at 10 µM [1] | Papp B→A at 10 µM [3] | IC50 [4] | further results |
| --- | --- | --- | --- | --- |
| CC1(CC(=O)N2CCC3(CC2)CC3CNC(=O)N2Cc3ccncc3C2)CCOCC1 (racemic) | 1 ×10⁻⁶ cm/s | 9.1 ×10⁻⁶ cm/s | > 10 µM |  |
| CC(C)(C)CC(=O)N1CCC2(CC1)CC2CNC(=O)N1Cc2ccncc2C1 (racemic) | 9.2 ×10⁻⁶ cm/s | 13 ×10⁻⁶ cm/s | > 10 µM |  |
| CC(C)(C)NC(=O)N1CCC2(CC1)CC2CNC(=O)N1Cc2ccncc2C1 (racemic) |  |  | > 10 µM |  |
| CC(C)(C)OC(=O)N1CCC2(CC1)CC2CNC(=O)c1cnc2nccn2c1 (racemic) |  |  | > 10 µM |  |
| CC1(OC(=O)N2CCC3(CC2)C[C@H]3CNC(=O)N2Cc3ccncc3C2)COC1 | 11 ×10⁻⁶ cm/s | 15 ×10⁻⁶ cm/s |  |  |
| CC(C)(C)OC(=O)N1CCC2(CCC(CNC(=O)c3cc4cnccc4[nH]3)OC2)CC1 (racemic) |  |  | > 10 µM |  |
| CC1(OC(=O)N2CCC3(CC2)CC3CNC(=O)N2Cc3ccncc3C2)COC1 (racemic) | 11 ×10⁻⁶ cm/s | 16 ×10⁻⁶ cm/s | > 10 µM |  |
| CC(C)CC(=O)N1CCC2(CC1)CC2CNC(=O)N1Cc2ccncc2C1 (racemic) | 7.3 ×10⁻⁶ cm/s | 14 ×10⁻⁶ cm/s | > 10 µM |  |
| CC1(O)CC(CC(=O)N2CCC3(CC2)CC3CNC(=O)N2Cc3ccncc3C2)C1 (racemic) | 0.2 ×10⁻⁶ cm/s | 1 ×10⁻⁶ cm/s |  |  |
| CC(C)OC(=O)N1CCC2(CC1)CC2CNC(=O)N1Cc2ccncc2C1 (racemic) | 13 ×10⁻⁶ cm/s | 14 ×10⁻⁶ cm/s | > 10 µM |  |
| [2H]C1([2H])c2ccncc2C([2H])([2H])N1C(=O)NCC1CC12CCN(C(=O)OC1(C)COC1)CC2 (racemic) |  |  | > 10 µM |  |
| Cc1nc(C)c(C(=O)N2CCC3(CC2)CC3CNC(=O)N2Cc3ccncc3C2)o1 (racemic) | 1.4 ×10⁻⁶ cm/s | 9 ×10⁻⁶ cm/s |  |  |
| CC1(CC(=O)N2CCC3(CC2)CC3CNC(=O)N2Cc3ccncc3C2)COC1 (racemic) | 1.4 ×10⁻⁶ cm/s | 4 ×10⁻⁶ cm/s | > 10 µM |  |
| Cc1nn(C)cc1C(=O)N1CCC2(CC1)CC2CNC(=O)N1Cc2ccncc2C1 (racemic) | 0.2 ×10⁻⁶ cm/s | 1.1 ×10⁻⁶ cm/s |  |  |
| CC(C)(C)OC(=O)N1CCC(CCNC(=O)c2cc3cnccc3[nH]2)CC1 |  |  | > 10 µM |  |
| O=C(CCC1CCOCC1)N1CCC2(CC1)CC2CNC(=O)N1Cc2ccncc2C1 (racemic) | 1.6 ×10⁻⁶ cm/s | 11 ×10⁻⁶ cm/s | > 10 µM |  |
| Cc1c(C(=O)N2CCC3(CC2)CC3CNC(=O)N2Cc3ccncc3C2)cnn1C (racemic) | 0.3 ×10⁻⁶ cm/s | 2.6 ×10⁻⁶ cm/s |  |  |

| Structure (SMILES) | Papp A→B at 10 µM [1] | Papp B→A at 10 µM [3] | IC50 [4] | further results |
| --- | --- | --- | --- | --- |
| O=C(CCC(F)(F)F)N1CCC2(CC1)CC2CNC(=O)N1Cc2ccncc2C1 (racemic) |  |  | > 10 µM |  |
| CC(C)(C)OC(=O)N1CCC2(CC1)CC2CNC(=O)c1cc2ccncc2s1 (racemic) |  |  | 7.2 µM |  |
| O=C(NCc1ccc(S(=O)(=O)C2CCCCC2)cc1)N1Cc2ccncc2C1 |  |  |  | logD at 1 h [2]: 2 |
| O=C(CC1CCOCC1)N1CCC2(CC1)CC2CNC(=O)N1Cc2ccncc2C1 (racemic) | 1.4 ×10⁻⁶ cm/s | 7 ×10⁻⁶ cm/s |  |  |
| Cc1nc(C)c(C(=O)N2CCC3(CC2)CC3CNC(=O)N2Cc3ccncc3C2)s1 (racemic) | 1.4 ×10⁻⁶ cm/s | 11 ×10⁻⁶ cm/s |  |  |
| CC(C)(C)OC(=O)N1CCC2(CC1)CC2CNC(=O)c1cc2ccncc2o1 (racemic) | 16 ×10⁻⁶ cm/s | 15 ×10⁻⁶ cm/s | > 10 µM |  |
| CCOC(=O)N1CCC2(CC1)CC2CNC(=O)N1Cc2ccncc2C1 (racemic) |  |  | > 10 µM |  |
| CC(C)(C)OC(=O)N1CCC2(CC1)CC2CNC(=O)c1cc2cnccc2[nH]1 (racemic) | 15 ×10⁻⁶ cm/s | 14 ×10⁻⁶ cm/s | > 10 µM |  |
| CC1(OC(=O)N2CCC3(CC2)CC3CNC(=O)N2Cc3ccncc3C2)CCC1 (racemic) | 15 ×10⁻⁶ cm/s | 12 ×10⁻⁶ cm/s | > 10 µM |  |
| CC(C)(C)OC(=O)N1CCCC(CCNC(=O)c2cc3cnccc3[nH]2)C1 (racemic) |  |  | 3.4 µM |  |
| N#CN=C(NCCCCCCOc1ccc(Cl)cc1)Nc1ccncc1 [CHS-828] |  |  |  | IC50 [7]: 0.63 µM; IC50 [8]: > 10 µM |
| Cc1ccc(CNC(=O)Nc2ccc(S(=O)(=O)c3ccccc3)cc2)cn1 |  |  |  | logD at 1 h [2]: 2.4 |
| O=C(NCC1CCCCC1)c1cc2cnccc2[nH]1 |  |  | > 10 µM | logD at 1 h [2]: 3.1 |
| Cc1nn(C)c(C)c1C(=O)N1CCC2(CC1)CC2CNC(=O)N1Cc2ccncc2C1 (racemic) | 0.2 ×10⁻⁶ cm/s | 1.9 ×10⁻⁶ cm/s | > 10 µM |  |
| O=C(NCc1ccc(S(=O)(=O)c2cc(F)cc(F)c2)cn1)c1cc2ccncc2o1 |  |  |  | logD at 1 h [2]: 2.6 |
| CC(C)CNC(=O)c1cc2cnccc2[nH]1 |  |  | > 10 µM | logD at 1 h [2]: 1.7 |

More lines, main results first:

| Papp A→B at 10 µM [1] | Papp B→A at 10 µM [3] | IC50 [4] | Structure (SMILES) | further results |
| --- | --- | --- | --- | --- |
| 21 ×10⁻⁶ cm/s | 9 ×10⁻⁶ cm/s |  | O=C(NCc1ccc([S@@+]([O-])c2cc(F)cc(F)c2)cn1)c1cc2ccncc2o1 | logD at 1 h [2]: 2 |
|  |  | > 10 µM | O=C(NCc1ccccc1)c1cc2cnccc2[nH]1 | logD at 1 h [2]: 2.2 |
| 7.9 ×10⁻⁶ cm/s | 19 ×10⁻⁶ cm/s | > 10 µM | O=C(NCC1CC12CCN(C(=O)c1ccccc1)CC2)N1Cc2ccncc2C1 (racemic) |  |
|  |  | 3.9 µM | Nc1cc2cc(C(=O)NCc3ccc(S(=O)(=O)c4ccccc4)cc3)oc2cn1 |  |
| 0.3 ×10⁻⁶ cm/s | 2.7 ×10⁻⁶ cm/s |  | Cc1ccncc1C(=O)N1CCC2(CC1)CC2CNC(=O)N1Cc2ccncc2C1 (racemic) |  |
| 0.2 ×10⁻⁶ cm/s | 1 ×10⁻⁶ cm/s | > 10 µM | CN1CCC(c2ccc(C(=O)N3CCC4(CC3)CC4CNC(=O)N3Cc4ccncc4C3)cc2)CC1 (racemic) |  |
|  | 0.43 ×10⁻⁶ cm/s |  | O=C(NCc1cccnc1)Nc1ccc(S(=O)(=O)N2CCC3(CCNC3)CC2)cc1 | logD at 1 h [2]: < -0.5 |
|  |  | 0.36 µM | O=C(NCc1ccc(NS(=O)(=O)C2CCCC2)cc1)c1cc2cnccc2[nH]1 | logD at 1 h [2]: 2.5 |
|  |  | 0.45 µM | O=C(NCc1ccc(C(=O)N2CCCC2)cc1)c1cc2cnccc2[nH]1 | logD at 1 h [2]: 1.6 |
|  |  | 0.2 µM | CS(=O)(=O)c1ccc(CNC(=O)c2cc3cnccc3[nH]2)cc1 | logD at 1 h [2]: 0.8 |
| 3 ×10⁻⁶ cm/s | 5.5 ×10⁻⁶ cm/s |  | Nc1ccc(CNC(=O)Nc2ccc(S(=O)(=O)c3ccccc3)cc2)cn1 | Activity [5]: 34%; logD at 1 h [2]: 2.7; Activity [6]: 45% |
|  |  | > 10 µM | Nc1cc2[nH]c(C(=O)NCc3ccc(S(=O)(=O)c4cc(F)cc(F)c4)cc3)cc2cn1 | Activity [5]: 83%; Activity [6]: 69% |
|  |  | 0.34 µM | NS(=O)(=O)c1ccc(CNC(=O)c2cc3cnccc3[nH]2)cc1 | logD at 1 h [2]: 0.6 |
| 3.1 ×10⁻⁶ cm/s | 11 ×10⁻⁶ cm/s |  | O=C(NCc1cccnc1)Nc1ccc(S(=O)(=O)c2ccccc2)cc1 | logD at 1 h [2]: 2.7 |
|  |  | > 10 µM | O=C(NCC1CC12CCN(CCc1ccccc1)CC2)N1Cc2ccncc2C1 (racemic) |  |
|  |  | 0.4 µM | CN(C)C(=O)c1cccc(COc2ccc(CNC(=O)c3cc4cnccc4[nH]3)cc2)c1 | logD at 1 h [2]: 2.5 |
|  |  | > 10 µM | Nc1cc2c(cn1)CN(C(=O)NCc1ccc(S(=O)(=O)c3ccccc3)cc1)C2 |  |
|  |  | 3.6 µM | O=C(/C=C/c1cccnc1)NCCCCC1CCN(C(=O)c2ccccc2)CC1 [DAPORINAD] | IC50 [7]: > 10 µM; IC50 [9]: > 10 µM |
